Experimental findings from patent US11512079B2, “Heterocycle substituted pyridine derivative antifungal agents” (Amplyx Pharmaceuticals, Inc., priority 2017, dated 2022) are described below.

The structures appear in SMILES notation. In brackets after ≈: the same amount, converted by molar mass.

A word on the MIC: it is the least concentration at which growth counts as inhibited. As usually defined, the minimal effective concentration is the smallest amount tested that counted as effective.

Type in all cases: cell-based
In assay [1] the test system is Candida albicans 90028. As to the kind of experiment: In vitro antifungal assay (Example IX), microdilution broth, MIC. The note with it: minimum inhibitory concentration (≥50% inhibition), 35° C., 40-48 h, RPMI1640. In outline:
(§1)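 CLSI broth microdilution in RPMI1640 with 2.5×10^3 cells/mL and final compound concentrations of 2-0.0019 μg/mL (1% DMSO). C. albicans 90028 plates were incubated at 35° C. for 40-48 h and C. neoformans H99 for 72 h. MIC was read as minimum inhibitory concentration, verified at 600 nm.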
(Broth dilution looks for growth in wells or tubes with falling amounts of substance.)

Assay [2] has as its system Cryptococcus neoformans H99. The assay is described as above. The note with it: minimum inhibitory concentration (≥50% inhibition), 35° C., 72 h, RPMI1640. In outline: as §1
Assay [3] relates to Cryptococcus gattii. Described as above. Conditions: minimum inhibitory concentration (≥50% inhibition), 35° C., 72 h (Cryptococcus), RPMI1640. In outline: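 Broth microdilution in RPMI1640 with 2.5×10^3 cells/mL inoculum; final compound concentrations were 2–0.0019 μg/mL, with 1% DMSO. Cryptococcus plates were incubated at 35 °C for 72 h, and growth was read at 600 nm to give the MIC.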

Assay [4] deals with Aspergillus fumigatus MYA3626. Briefly: In vitro antifungal assay (Example IX), microdilution broth, MEC. Conditions: minimum effective concentration (shortening of hyphae), 35° C., 40-48 h, RPMI1640. In outline: (§2)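 Spore suspensions of A. fumigatus and R. pusillus adjusted to 1-2×10^4 spores/mL in RPMI1640 and exposed to compound dilutions prepared in DMSO, by broth microdilution. MEC taken as the lowest concentration shortening hyphae versus DMSO control wells, read as for echinocandins.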

In assay [5] the test system is Rhizomucor pusillus 46342. The assay is described as above. Conditions: minimum effective concentration (shortening of hyphae), 35° C., 40-48 h, RPMI1640. In outline: as §2

Consider `Nc1ncccc1-c1cc(Cc2ccc(Oc3ccc(F)cc3F)nc2)no1` [compound 75, 3-(3-((6-(2,4-difluorophenoxy)pyridin-3-yl)methyl)isoxazol-5-yl)pyridin-2-amine], for which the results for the MIC in assay [1], in assay [2] and in assay [3] were 0.01 to 0.1 µg/mL (≈ 0.0263 to 0.263 µM), 0.01 to 0.1 µg/mL (≈ 0.0263 to 0.263 µM) and 0.1 to 1 µg/mL (≈ 0.263 to 2.63 µM), respectively. The minimal effective concentration in assay [4] lay within 0.01 to 0.1 µg/mL; in assay [5], 0.1 to 1 µg/mL.
On to `Nc1ncccc1-c1cc(Cc2ccc(OCCc3ccccc3F)nc2)no1` [compound 77, 3-(3-((6-(2-fluorophenethoxy)pyridin-3-yl)methyl)isoxazol-5-yl)pyridin-2-amine], for which the MIC in assay [1], in assay [2] and in assay [3] was 0.01 to 0.1 µg/mL (≈ 0.0256 to 0.256 µM) throughout. In addition, the minimal effective concentration in assay [4] and in assay [5] was 0.1 to 1 µg/mL throughout.
For `Nc1ncccc1-c1cc(Cc2ccc(OCCc3ccccc3)nc2)no1` [compound 78, 3-(3-((6-phenethoxypyridin-3-yl)methyl)isoxazol-5-yl)pyridin-2-amine], the MIC in assay [1], in assay [2] and in assay [3] was 0.01 to 0.1 µg/mL (≈ 0.0269 to 0.269 µM) in each case. For the same compound, the minimal effective concentration in assay [4] and in assay [5] was 0.1 to 1 µg/mL throughout.
As to `Nc1ncccc1-c1cc(Cc2ccc(OCCc3ccc(F)cc3)nc2)no1` [compound 79, 3-(3-((6-(4-fluorophenethoxy)pyridin-3-yl)methyl)isoxazol-5-yl)pyridin-2-amine], the MIC fell in the range of 0.01 to 0.1 µg/mL (≈ 0.0256 to 0.256 µM) in assay [1], 0.01 to 0.1 µg/mL (≈ 0.0256 to 0.256 µM) in assay [2] and 0.1 to 1 µg/mL (≈ 0.256 to 2.56 µM) in assay [3]. Moreover, the minimal effective concentration in assay [4] and in assay [5] was 0.1 to 1 µg/mL each time.
Turning to `Nc1ncccc1-c1cc(Cc2ccc(OCc3cccc(F)c3)nc2)no1` [compound 80, 3-(3-((6-((3-fluorobenzyl)oxy)pyridin-3-yl)methyl)isoxazol-5-yl)pyridin-2-amine], the MIC was no more than 0.01 µg/mL in assay [1], 0.01 to 0.1 µg/mL (≈ 0.0266 to 0.266 µM) in assay [2] and 0.01 to 0.1 µg/mL (≈ 0.0266 to 0.266 µM) in assay [3]. The minimal effective concentration in assay [4] was no more than 0.01 µg/mL; in assay [5] it was 0.1 to 1 µg/mL.
As to `Nc1ncccc1-c1cc(Cc2ccc(Oc3cc(F)cc(F)c3)nc2)no1` [compound 81, 3-(3-((6-(3,5-difluorophenoxy)pyridin-3-yl)methyl)isoxazol-5-yl)pyridin-2-amine], the MIC in assay [1] was 0.01 to 0.1 µg/mL (≈ 0.0263 to 0.263 µM); in assay [2], no more than 0.01 µg/mL; in assay [3], 0.01 to 0.1 µg/mL (≈ 0.0263 to 0.263 µM). Besides, the minimal effective concentration in assay [4] fell in the range of 0.01 to 0.1 µg/mL; in assay [5], 0.1 to 1 µg/mL.
`Cc1csc(COc2ccc(Cc3cc(-c4cccnc4N)on3)cn2)n1` [compound 82, 3-(3-((6-((4-methylthiazol-2-yl)methoxy)pyridin-3-yl)methyl)isoxazol-5-yl)pyridin-2-amine]: the minimum inhibitory concentration (MIC) in assay [1] lay within 0.1 to 1 µg/mL (≈ 0.264 to 2.64 µM); in assay [2], 0.01 to 0.1 µg/mL (≈ 0.0264 to 0.264 µM); in assay [3] it was 0.01 to 0.1 µg/mL (≈ 0.0264 to 0.264 µM). The minimal effective concentration in assay [4] was 0.01 to 0.1 µg/mL; in assay [5], greater than 1 µg/mL.
With `Nc1ncccc1-c1cc(Cc2ccc(OCc3ccnc(Cl)c3)nc2)no1` [compound 83, 3-(3-((6-((2-chloropyridin-4-yl)methoxy)pyridin-3-yl)methyl)isoxazol-5-yl)pyridin-2-amine], the minimum inhibitory concentration (MIC) in assay [1] was 0.01 to 0.1 µg/mL (≈ 0.0254 to 0.254 µM); in assay [2], no more than 0.01 µg/mL; in assay [3], 0.01 to 0.1 µg/mL (≈ 0.0254 to 0.254 µM). For the same compound, the minimal effective concentration is 0.01 to 0.1 µg/mL in assay [4] and greater than 1 µg/mL in assay [5].
As to `Nc1ncccc1-c1cc(Cc2ccc(OCc3cc(F)cc(F)c3)nc2)no1` [compound 84, 3-(3-((6-((3,5-difluorobenzyl)oxy)pyridin-3-yl)methyl)isoxazol-5-yl)pyridin-2-amine], the figures for the MIC in assay [1], in assay [2] and in assay [3] were 0.01 to 0.1 µg/mL (≈ 0.0254 to 0.254 µM), 0.01 to 0.1 µg/mL (≈ 0.0254 to 0.254 µM) and 0.1 to 1 µg/mL (≈ 0.254 to 2.54 µM), respectively. The values for the minimal effective concentration in assay [4] and in assay [5] were 0.01 to 0.1 µg/mL and 0.1 to 1 µg/mL, respectively.
Consider `Nc1ncccc1-c1cc(Cc2ccc(/C=C/C3CCCCC3)cc2)no1` [compound 99, (E)-3-(3-(4-(2-cyclohexylvinyl)benzyl)isoxazol-5-yl)pyridin-2-amine], for which the minimum inhibitory concentration (MIC) in assay [1] was greater than 1 µg/mL; in assay [2] it was 0.1 to 1 µg/mL (≈ 0.278 to 2.78 µM); in assay [3] it was 0.1 to 1 µg/mL (≈ 0.278 to 2.78 µM). The minimal effective concentration in assay [4] was 0.1 to 1 µg/mL; in assay [5], greater than 1 µg/mL.
Regarding `Nc1ncccc1-c1cc(Cc2ccc(CCC3CCCCC3)cc2)no1` [compound 100, 3-(3-(4-(2-cyclohexylethyl)benzyl)isoxazol-5-yl)pyridin-2-amine], the MIC in assay [1], in assay [2] and in assay [3] was 0.1 to 1 µg/mL (≈ 0.277 to 2.77 µM) each time. Moreover, the results for the minimal effective concentration in assay [4] and in assay [5] were 0.1 to 1 µg/mL and greater than 1 µg/mL, respectively.
With `Nc1ncccc1-c1cnn(Cc2ccc(OCc3ccccc3)nc2)c1` [compound 101, 3-(1-((6-(benzyloxy)pyridin-3-yl)methyl)-1H-pyrazol-4-yl)pyridin-2-amine], the MIC was in the range of 0.1 to 1 µg/mL (≈ 0.28 to 2.8 µM) in assay [1], 0.01 to 0.1 µg/mL (≈ 0.028 to 0.28 µM) in assay [2] and 0.01 to 0.1 µg/mL (≈ 0.028 to 0.28 µM) in assay [3]. The minimal effective concentration in assay [4] is 0.1 to 1 µg/mL; in assay [5], greater than 1 µg/mL.
`Nc1ncccc1-c1cc(Cc2ccc(COc3cccnc3)cc2)no1` [compound 105, 3-(3-(4-((pyridin-3-yloxy)methyl)benzyl)isoxazol-5-yl)pyridin-2-amine]: the MIC in assay [1] was 0.01 to 0.1 µg/mL (≈ 0.0279 to 0.279 µM); in assay [2], 0.1 to 1 µg/mL (≈ 0.279 to 2.79 µM); in assay [3] it was 0.01 to 0.1 µg/mL (≈ 0.0279 to 0.279 µM). The minimal effective concentration in assay [4] was 0.1 to 1 µg/mL; in assay [5], greater than 1 µg/mL.
For the compound `Nc1ncccc1-c1cc(Cc2ccc(CNc3ccccc3F)cc2)no1` [compound 106, 3-(3-(4-(((2-fluorophenyl)amino)methyl)benzyl)isoxazol-5-yl)pyridin-2-amine], the values for the MIC in assay [1], in assay [2] and in assay [3] were 0.01 to 0.1 µg/mL (≈ 0.0267 to 0.267 µM), 0.1 to 1 µg/mL (≈ 0.267 to 2.67 µM) and 0.01 to 0.1 µg/mL (≈ 0.0267 to 0.267 µM), respectively. Besides, the minimal effective concentration in assay [4] was 0.01 to 0.1 µg/mL; in assay [5], 0.1 to 1 µg/mL.
Take `Nc1ncccc1-c1cc(Cc2ccc(CNc3cccc(F)c3)cc2)no1` [compound 107, 3-(3-(4-(((3-fluorophenyl)amino)methyl)benzyl)isoxazol-5-yl)pyridin-2-amine]: the MIC in assay [1], in assay [2] and in assay [3] was 0.01 to 0.1 µg/mL (≈ 0.0267 to 0.267 µM) throughout. The minimal effective concentration in assay [4] and in assay [5] was 0.01 to 0.1 µg/mL in each case.
As for `Nc1ncccc1-c1cc(Cc2ccc(CNc3cccc(F)c3F)cc2)no1` [compound 108, 3-(3-(4-(((2,3-difluorophenyl)amino)methyl)benzyl)isoxazol-5-yl)pyridin-2-amine], the results for the minimum inhibitory concentration (MIC) in assay [1], in assay [2] and in assay [3] were 0.01 to 0.1 µg/mL (≈ 0.0255 to 0.255 µM), 0.1 to 1 µg/mL (≈ 0.255 to 2.55 µM) and 0.1 to 1 µg/mL (≈ 0.255 to 2.55 µM), respectively. Further, the minimal effective concentration was in the range of 0.01 to 0.1 µg/mL in assay [4] and 0.1 to 1 µg/mL in assay [5].
In the case of `Nc1ncccc1-c1cc(Cc2ccc(Oc3ccccn3)cc2)no1` [compound 110, 3-(3-(4-(pyridin-2-yloxy)benzyl)isoxazol-5-yl)pyridin-2-amine], the results for the MIC in assay [1], in assay [2] and in assay [3] were 0.01 to 0.1 µg/mL (≈ 0.029 to 0.29 µM), 0.01 to 0.1 µg/mL (≈ 0.029 to 0.29 µM) and no more than 0.01 µg/mL, respectively. Further, the minimal effective concentration in assay [4] was in the range of 0.01 to 0.1 µg/mL; in assay [5], 0.1 to 1 µg/mL.
In the case of `Nc1ncccc1-c1cc(Cc2ccc(OCc3nccs3)cc2)no1` [compound 112, 3-(3-(4-(thiazol-2-ylmethoxy)benzyl)isoxazol-5-yl)pyridin-2-amine], the MIC in assay [1] lay within 0.1 to 1 µg/mL (≈ 0.274 to 2.74 µM); in assay [2], 0.01 to 0.1 µg/mL (≈ 0.0274 to 0.274 µM); in assay [3], 0.01 to 0.1 µg/mL (≈ 0.0274 to 0.274 µM). For the same compound, the minimal effective concentration in assay [4] lay within 0.01 to 0.1 µg/mL; in assay [5], 0.1 to 1 µg/mL.
`Cc1cncc(COc2ccc(Cc3cc(-c4cccnc4N)on3)cc2)c1` [compound 114, 3-(3-(4-((5-methylpyridin-3-yl)methoxy)benzyl)isoxazol-5-yl)pyridin-2-amine]: the MIC in assay [1], in assay [2] and in assay [3] was 0.1 to 1 µg/mL (≈ 0.269 to 2.69 µM) throughout. Also, the minimal effective concentration was 0.01 to 0.1 µg/mL in assay [4] and greater than 1 µg/mL in assay [5].
As for `Nc1ncccc1-c1cc(Cc2ccc(OCc3cncc(F)c3)cc2)no1` [compound 115, 3-(3-(4-((5-fluoropyridin-3-yl)methoxy)benzyl)isoxazol-5-yl)pyridin-2-amine], the MIC in assay [1], in assay [2] and in assay [3] was 0.1 to 1 µg/mL (≈ 0.266 to 2.66 µM) throughout. The minimal effective concentration was 0.01 to 0.1 µg/mL in assay [4] and greater than 1 µg/mL in assay [5].
As for `Nc1ncccc1-c1cc(Cc2ccc(OCc3ccnc(Cl)c3)cc2)no1` [compound 117, 3-(3-(4-((2-chloropyridin-4-yl)methoxy)benzyl)isoxazol-5-yl)pyridin-2-amine], the MIC in assay [1] is 0.1 to 1 µg/mL (≈ 0.255 to 2.55 µM); in assay [2], 0.01 to 0.1 µg/mL (≈ 0.0255 to 0.255 µM); in assay [3], no more than 0.01 µg/mL. The minimal effective concentration is 0.01 to 0.1 µg/mL in assay [4] and greater than 1 µg/mL in assay [5].
As to `N#Cc1cccc(COc2ccc(Cc3cc(-c4cccnc4N)on3)cc2)n1` [compound 118, 6-((4-((5-(2-aminopyridin-3-yl)isoxazol-3-yl)methyl)phenoxy)methyl)picolinonitrile], the minimal inhibitory concentration (MIC) in assay [1], in assay [2] and in assay [3] was 0.1 to 1 µg/mL (≈ 0.261 to 2.61 µM) throughout. The minimal effective concentration is 0.1 to 1 µg/mL in assay [4] and greater than 1 µg/mL in assay [5].
